Measured values taken from patent publication US20250387351A1 (SpringWorks Therapeutics, Inc, priority 2024, published 2025).

What was measured:
[1] = Pharmacokinetic parameters and characteristics of mirdametinib (Table A); format: in vivo, human
[2] = system: NF1-associated inoperable plexiform neurofibromas (PNs); experiment: Phase 2b trial: response of target PN by BICR volumetric MRI per REiNS criteria; format: in vivo, human; conditions: for Confirmed Objective Response Rate per REiNS criteria by BICR, n (%): 24-cycle treatment phase, BSA-based BID dose, 3 weeks on/1 week off; for Confirmed Partial Response, n (%): PR = ≥20% reduction in PN volume; for DoR ≥12 months: Kaplan-Meier based, data cut-off September 2023
Experimental: Participants were screened (assessed for eligibility as described below). […] The median age was 34.5 years (range 18 to 69 years); 85% were white and 64% were female. […] The most commonly reported morbidities were pain (90%) and disfigurement or major deformity (52%).
The median age was 10 years (range 2 to 17 years); 66% were white and 54% were female. […] The most commonly reported morbidities were pain (70%) and disfigurement or major deformity (50%).
Study treatment was administered orally at a twice daily (BID) dose specified in the table below. Dosing was on a 28-day Cycle (4-week course) with a 3 week on/1 week off schedule. The treatment period will last for up to 24 Cycles followed by a 30-day Safety Follow-Up period.
A partial response was defined as PN decrease ≥20% compared to baseline using centrally read MRI volumetric analysis.
The major efficacy outcome measure was confirmed objective response rate (ORR), defined as the percentage of patients with complete response (disappearance of the target PN) or confirmed partial response (≥20% reduction in PN volume confirmed at a subsequent tumor assessment within 2-6 months during the 24-cycle treatment phase). Responses were assessed by blinded independent central review (BICR) using volumetric magnetic resonance imaging (MRI) analysis per Response Evaluation in Neurofibromatosis and Schwannomatosis (REiNS) criteria. A secondary efficacy objective was to determine the duration of response for patients who achieved a confirmed objective response.

[3] = geometric least squares mean ratio, food effect

## O=C(NOC[C@H](O)CO)c1ccc(F)c(F)c1Nc1ccc(I)cc1F (single isomer, unassigned) [mirdametinib]
[1]; Capsule
  Tmax [median (range)]: Capsule: 1.08 (0.00-4.17) hours post dose
[1]; In feces
  Excretion: radioactivity in feces: In feces: 27%
[1]; In urine
  Excretion: radioactivity in urine: In urine: 68%
  Excretion: unchanged mirdametinib in urine: In urine: 0.7%
[1]; In urine and feces
  Excretion: unchanged mirdametinib in urine and feces: In urine and feces: 9%
[1]; Tablet
  Tmax [median (range)]: Tablet: 0.83 (0.42-3.02) hours post dose
[1]; [3]
  Food effect [GMR % (90% CI)] AUCinf: 93% (90%, 96%)
  Food effect [GMR % (90% CI)] Cmax: 57% (54%, 61%)
[1]; in vivo
  Time to steady-state: Approximately 6 days
[2]; Adult (N = 58)
  Confirmed Complete Response, n (%): 0 n (%)
  Confirmed Objective Response Rate per REiNS criteria by BICR, n (%): 24 (41) n (%)
  Confirmed Partial Response, n (%): 24 (41) n (%)
[2]; Adult responders
  DoR ≥12 months: 18 (75%)
[2]; Pediatric (N = 56)
  Confirmed Complete Response, n (%): 0 n (%)
  Confirmed Objective Response Rate per REiNS criteria by BICR, n (%): 29 (52) n (%)
  Confirmed Partial Response, n (%): 29 (52) n (%)
[2]; Pediatric responders
  DoR ≥12 months: 22 (76%)
[2]; adult cohort (range: 4.0 months to 19.0 months)
  median time to onset of response: 7.8 months
[2]; adults (95% CI: 32, 59)
  ORR also considering confirmed objective responses after cycle 24: 45%
[2]; pediatric cohort (range: 4.1 months to 18.8 months)
  median time to onset of response: 7.9 months
[2]; pediatric patients (95% CI: 40, 67)
  ORR also considering confirmed objective responses after cycle 24: 54%
